Measured values from ChEMBL document CHEMBL4418281, “Carboxamide inhibitors” (2017).

Legend:
[1] = molecular target: E3 ubiquitin-protein ligase SMURF2 (Homo sapiens, UniProt Q9HAU4); assay: Inhibition of SMURF2 (unknown origin) in presence of E1/E2/Ub mix measured after 45 mins by europium-labeled streptavidin based TR-FRET assay
[2] = molecular target: E3 ubiquitin-protein ligase SMURF1 (Homo sapiens, UniProt Q9HCE7); assay: Inhibition of SMURF1 (unknown origin) in presence of E1/E2/Ub mix measured after 45 mins by europium-labeled streptavidin based TR-FRET assay
Chain of E3 ubiquitin-protein ligase SMURF1 (Q9HCE7 whole entry): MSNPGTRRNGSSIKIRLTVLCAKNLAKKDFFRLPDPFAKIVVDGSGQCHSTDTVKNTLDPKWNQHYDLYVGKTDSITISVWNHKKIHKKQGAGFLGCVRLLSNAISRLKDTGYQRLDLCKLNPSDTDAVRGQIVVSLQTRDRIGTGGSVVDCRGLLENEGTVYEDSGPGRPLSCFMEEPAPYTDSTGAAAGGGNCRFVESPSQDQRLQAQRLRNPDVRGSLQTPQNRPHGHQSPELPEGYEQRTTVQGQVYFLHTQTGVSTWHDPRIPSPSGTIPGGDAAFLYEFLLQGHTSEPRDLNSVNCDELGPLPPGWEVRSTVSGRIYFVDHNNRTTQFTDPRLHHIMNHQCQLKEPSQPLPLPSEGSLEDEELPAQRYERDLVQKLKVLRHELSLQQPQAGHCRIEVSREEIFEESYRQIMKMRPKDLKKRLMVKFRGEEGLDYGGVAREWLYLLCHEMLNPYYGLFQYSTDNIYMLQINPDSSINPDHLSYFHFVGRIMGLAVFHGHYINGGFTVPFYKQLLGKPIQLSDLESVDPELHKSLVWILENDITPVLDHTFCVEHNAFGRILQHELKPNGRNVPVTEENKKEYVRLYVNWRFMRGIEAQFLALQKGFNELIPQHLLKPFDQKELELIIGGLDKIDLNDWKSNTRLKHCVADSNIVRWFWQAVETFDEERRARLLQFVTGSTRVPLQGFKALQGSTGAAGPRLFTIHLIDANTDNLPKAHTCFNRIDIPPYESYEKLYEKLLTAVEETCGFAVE

Chain of E3 ubiquitin-protein ligase SMURF2 (Q9HAU4 whole entry): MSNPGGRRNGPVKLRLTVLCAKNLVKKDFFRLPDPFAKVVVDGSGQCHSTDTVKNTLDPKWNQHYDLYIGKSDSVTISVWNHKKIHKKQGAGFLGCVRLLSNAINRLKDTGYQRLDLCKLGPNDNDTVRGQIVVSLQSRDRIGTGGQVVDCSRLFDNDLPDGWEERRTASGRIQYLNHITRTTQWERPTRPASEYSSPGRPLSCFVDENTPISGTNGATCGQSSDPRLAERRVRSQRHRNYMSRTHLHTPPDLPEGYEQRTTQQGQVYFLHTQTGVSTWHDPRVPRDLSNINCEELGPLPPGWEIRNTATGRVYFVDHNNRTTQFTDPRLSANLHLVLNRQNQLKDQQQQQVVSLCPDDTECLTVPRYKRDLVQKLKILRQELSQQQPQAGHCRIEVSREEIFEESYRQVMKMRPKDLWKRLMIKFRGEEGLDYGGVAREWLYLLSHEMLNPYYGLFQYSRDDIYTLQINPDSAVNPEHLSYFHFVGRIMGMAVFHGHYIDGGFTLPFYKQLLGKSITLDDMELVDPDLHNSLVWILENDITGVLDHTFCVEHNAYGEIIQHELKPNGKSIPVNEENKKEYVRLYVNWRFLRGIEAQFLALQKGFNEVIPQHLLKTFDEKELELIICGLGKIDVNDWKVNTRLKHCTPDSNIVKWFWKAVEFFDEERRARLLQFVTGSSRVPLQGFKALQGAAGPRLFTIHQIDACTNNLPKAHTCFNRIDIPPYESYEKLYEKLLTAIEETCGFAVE

SMILES | IC50 [1] [µM] | IC50 [2] [µM]
Cc1c(NC(=O)c2noc3c2CCCc2cc(OC(F)(F)F)ccc2-3)c(=O)n(Cc2ccc(F)cc2)n1C | 20 | 
Cc1c(NC(=O)c2noc3c2CCCc2cc(CC(C)C)ccc2-3)c(=O)n(-c2ccccc2Cl)n1C | 0.74 | 0.0225
COc1ccc2c(c1)CCCc1c(C(=O)Nc3c(C)n(C)n(Cc4ccc(F)cc4)c3=O)noc1-2 | 20 | 
Cc1c(NC(=O)c2noc3c2CCCc2cc(OC(F)(F)F)ccc2-3)c(=O)n(Cc2ccccc2F)n1C | 20 | 
